Results: PMC4252588 (FEBS letters, 2014)
pEC50, pKd: −log10 of the molar value. Like-named read-outs stand apart in the source and are kept apart here.

Assays:
[1] = biological target: T1, Y-CYP51A (Trypanosoma cruzi, UniProt Q7Z1V1, P355S); experiment: Type 2 spectral response titration with inhibitors; format: binding; settings: calculated from the Y-CYP51A titration curves; [P450] 0.4 µM
[2] = biological target: T2, Tulahuen CYP51 (Trypanosoma cruzi, UniProt Q7Z1V1); settings: Tulahuen T. cruzi CYP51; cited from earlier work
[3] = test system: Y strain T. cruzi epimastigotes; experiment: Insect stage; format: cell-based, Trypanosoma cruzi; settings: insect stage of Y T. cruzi; 1 µM
[4] = test system: L. infantum CYP51; settings: cited from earlier work
[5] = test system: T. brucei CYP51; settings: cited from earlier work
[6] = biological target: T2, Tulahuen CYP51; experiment: Reconstituted CYP51 activity assay, eburicol 14α-demethylation; format: biochemical
[7] = test system: Y strain T. cruzi amastigotes; experiment: Cellular infection assay, human stage; format: cell-based, Trypanosoma cruzi
[8] = test system: Tulahuen T. cruzi; settings: cells infected by Tulahuen T. cruzi; cited from earlier work
[9] = test system: Tulahuen strain of T. cruzi; settings: mice infected with Tulahuen strain; cited from earlier work
[10] = biological target: T1, Y-CYP51A; experiment: Reconstituted CYP51 activity assay, eburicol 14α-demethylation; format: biochemical
[11] = biological target: Tulahuen CYP51 (Trypanosoma cruzi, UniProt Q7Z1V1, A9G); experiment: Type 1 spectral response, substrate binding
[12] = biological target: T1, Y-CYP51A; experiment: Type 1 spectral response, substrate binding
[13] = Tulahuen CYP51, inhibitor/enzyme/substrate 1:1:100, 1 h

For `O=C(N[C@@H](Cn1ccnc1)c1ccc(-c2ccc(F)cc2)cc1F)c1ccc(-c2nnc(-c3ccccc3)o2)cc1` [VFV, (R)-N-(1-(3,4'-difluorobiphenyl-4-yl)-2-(1H-imidazol-1-yl)ethyl)-4-(5-phenyl-1,3,4-oxadiazol-2-yl)benzamide], the Apparent binding efficiency [1] is given as 87, the “Inhibitory potency” value [2] is given as “equally potent” and the “Antiparasitic potency compared with VNI” value [3] is given as “higher antiparasitic potency”. For the same molecule, the “Inhibitory potency” value [4] was “equally potent”, the “Inhibitory potency” value [5] was “equally potent” and the “Inhibition at I/E/S molar ratio 1:1:100, one hour reaction” value [6, 13] was 100%. For the same molecule, the “Antiparasitic potency compared with VNI” value ([7]; human stage of Y T. cruzi, H9C2 cells, 48 h) was “higher antiparasitic potency”.
For `O=C(N[C@@H](Cn1ccnc1)c1ccc(Cl)cc1Cl)c1ccc(-c2nnc(-c3ccccc3)o2)cc1` [VNI, (R)-N-(1-(2,4-dichlorophenyl)-2-(1H-imidazol-1-yl)ethyl)-4-(5-phenyl-1,3,4-oxadiazol-2-yl)benzamide], the Apparent binding efficiency [1] is listed as 9, the “Concentration that completely eradicates the parasite” value [8] is listed as 8 nM and the pEC50 [8] is listed as 8.89. The Outcome of treatment [9] was “cure both the acute and chronic models of Chagas disease”, the “Inhibition at I/E/S molar ratio 1:1:100, one hour reaction” value [6] was 100% and the “Inhibition of the enzyme” value [6] was “completely inhibited”. The pEC50 ([7]; Trypanosoma cruzi, Vero, in Homo sapiens) was less than 8.30 and the “Amastigotes within host cells after treatment” value ([7]; cardiomyoblasts and Vero cells, up to 1 µM) was “some trace of amastigotes being observed”.
In the case of `O=C(N[C@@H](Cn1cncn1)c1ccc(Cl)cc1Cl)c1ccc(-c2nnc(-c3ccccc3)o2)cc1` [VNT, (R)-N-(1-(2,4-dichlorophenyl)-2-(1H-1,2,4-triazol-1-yl)ethyl)-4-(5-phenyl-1,3,4-oxadiazol-2-yl)benzamide], the Apparent binding efficiency [1] is listed as 2, the “Inhibitory potency” value [2] is listed as “as potent as VNI” and the “Inhibitory potency” value [4] is listed as “weaker inhibitory effect”. The “Inhibitory potency” value [5] was “weaker inhibitory effect”, the “Inhibition of the enzyme” value ([6]; Tulahuen CYP51, equimolar amounts of inhibitor) was “completely inhibited” and the “Inhibition at I/E/S molar ratio 1:1:100, one hour reaction” value [6, 13] was 100%.
For `C=C(CCC(C)C1CCC2(C)C3=C(CCC12C)C1(C)CCC(O)C(C)(C)C1CC3)C(C)C` (stereo not drawn) [Substrate, eburicol], the Turnover number [10] was 2.0±0.2 nmol substrate/nmol P450 /min, the Turnover number ([6]; Tulahuen CYP51) was 5.6±0.3 nmol substrate/nmol P450 /min and the pKd [11] was 6.10. For the same molecule, the “ΔA (% low-to-high spin transition)” value ([11]; Tulahuen CYP51) was 36%, the pKd [12] was 5.81 and the “ΔA (% low-to-high spin transition)” value ([12]; Y-CYP51A) was 48%.
